Tests used:
HEK293 cells [1] = experiment: Preliminary screening as mRNA vectors, EGFP mRNA transfection of HEK293 cells; assay type: cell-based; settings: HEK293 cells, 96-well plates, EGFP mRNA 50 ng per well; percentage of GFP fluorescent cells relative to total number of cells (Hoechst)
Outline: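 HEK293 cells in DMEM plus 10% FBS transfected in 96-well format with 50 ng EGFP mRNA per well; Lipofectamine2000 served as positive control. Read-out is the percentage of GFP-fluorescent cells among total cells, counted by Hoechst nuclear stain.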

HEK293 cells [2] = experiment: Preliminary screening as DNA vectors, GFP transfection of HEK293 cells; assay type: cell-based; settings: HEK293 cells; lipid/DOPE liposome with 75 ng plasmid DNA (psin-EGFP-IRES-Puro); number of cells expressing GFP divided by total number of nuclei (Hoechst)
Outline: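 HEK293 cells in DMEM/10% FBS transfected with 75 ng EGFP plasmid per well complexed with amino lipid/DOPE liposomes in pH 5.6 sodium acetate. Hoechst nuclear stain added 20-24 h post-transfection, then cells cultured another 20-24 h. Confocal imaging gives GFP-positive cells as % of total nuclei.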

SMILES	Absolute mRNA transfection efficiency in HEK293 cells (HEK293 cells [1])	Absolute DNA transfection efficiency in HEK293 cells (HEK293 cells [2])
CCCCCCCCCSc1nc(NCC2CCN(C)CC2)nc(SCCCCCCCCC)n1 [Compound S9S9D10]	34.9%	11.3%
CCCCCCCCCCSc1nc(NCCN(C)C)nc(SCCCCCCCCC)n1 [Compound S9S10D1]	5.0%	8.6%
CCCCCCCCCCSc1nc(NCCN2CCOCC2)nc(SCCCCCCCCC)n1 [Compound S9S10D2]	2.5%	10.7%
CCCCCCCCCCSc1nc(NCCN2CCCC2)nc(SCCCCCCCCC)n1 [Compound S9S10D3]	70.1%	10.3%
CCCCCCCCCCSc1nc(NCCN2CCCCC2)nc(SCCCCCCCCC)n1 [Compound S9S10D4]	4.1%	13.3%
CCCCCCCCCCSc1nc(NCCN2CCN(C)CC2)nc(SCCCCCCCCC)n1 [Compound S9S10D5]	61.4%	27.6%
CCCCCCCCCCSc1nc(NCCCN(C)C)nc(SCCCCCCCCC)n1 [Compound S9S10D6]	74.6%	21.2%
CCCCCCCCCCSc1nc(NCCN(CC)CC)nc(SCCCCCCCCC)n1 [Compound S9S10D7]	2.8%	8.3%
CCCCCCCCCCSc1nc(NCCCN2CCOCC2)nc(SCCCCCCCCC)n1 [Compound S9S10D8]	9.8%	22.5%
CCCCCCCCCCSc1nc(NCCCN2CCN(C)CC2)nc(SCCCCCCCCC)n1 [Compound S9S10D9]	46.6%	34.1%
CCCCCCCCCCSc1nc(NCC2CCN(C)CC2)nc(SCCCCCCCCC)n1 [Compound S9S10D10]	47.2%	18.7%
CCCCCCCCCCCSc1nc(NCCN(C)C)nc(SCCCCCCCCC)n1 [Compound S9S11D1]	3.0%	9.5%
CCCCCCCCCCCSc1nc(NCCN2CCOCC2)nc(SCCCCCCCCC)n1 [Compound S9S11D2]	3.3%	17.3%
CCCCCCCCCCCSc1nc(NCCN2CCCC2)nc(SCCCCCCCCC)n1 [Compound S9S11D3]	1.9%	10.0%
CCCCCCCCCCCSc1nc(NCCN2CCCCC2)nc(SCCCCCCCCC)n1 [Compound S9S11D4]	4.1%	15.2%
CCCCCCCCCCCSc1nc(NCCN2CCN(C)CC2)nc(SCCCCCCCCC)n1 [Compound S9S11D5]	48.6%	11.4%
CCCCCCCCCCCSc1nc(NCCCN(C)C)nc(SCCCCCCCCC)n1 [Compound S9S11D6]	85.1%	41.9%

SMILES	Absolute mRNA transfection efficiency in HEK293 cells (HEK293 cells [1])	Absolute DNA transfection efficiency in HEK293 cells (HEK293 cells [2])
CCCCCCCCCCCSc1nc(NCCN(CC)CC)nc(SCCCCCCCCC)n1 [Compound S9S11D7]	2.5%	8.1%
CCCCCCCCCCCSc1nc(NCCCN2CCOCC2)nc(SCCCCCCCCC)n1 [Compound S9S11D8]	24.4%	21.8%
CCCCCCCCCCCSc1nc(NCCCN2CCN(C)CC2)nc(SCCCCCCCCC)n1 [Compound S9S11D9]	49.7%	8.5%
CCCCCCCCCCCSc1nc(NCC2CCN(C)CC2)nc(SCCCCCCCCC)n1 [Compound S9S11D10]	88.8%	32.8%
CCCCCCCCCCCCCCCCCCSc1nc(NCCN(C)C)nc(SCCCCCCCCC)n1 [Compound S9S18D1]	2.7%	4.9%
CCCCCCCCCCCCCCCCCCSc1nc(NCCN2CCOCC2)nc(SCCCCCCCCC)n1 [Compound S9S18D2]	0.0%	2.3%
CCCCCCCCCCCCCCCCCCSc1nc(NCCN2CCCC2)nc(SCCCCCCCCC)n1 [Compound S9S18D3]	35.8%	13.9%
CCCCCCCCCCCCCCCCCCSc1nc(NCCN2CCCCC2)nc(SCCCCCCCCC)n1 [Compound S9S18D4]	0.6%	5.5%
CCCCCCCCCCCCCCCCCCSc1nc(NCCN2CCN(C)CC2)nc(SCCCCCCCCC)n1 [Compound S9S18D5]	22.0%	4.0%
CCCCCCCCCCCCCCCCCCSc1nc(NCCCN(C)C)nc(SCCCCCCCCC)n1 [Compound S9S18D6]	11.6%	1.7%
CCCCCCCCCCCCCCCCCCSc1nc(NCCN(CC)CC)nc(SCCCCCCCCC)n1 [Compound S9S18D7]	1.9%	11.8%
CCCCCCCCCCCCCCCCCCSc1nc(NCCCN2CCOCC2)nc(SCCCCCCCCC)n1 [Compound S9S18D8]	12.4%	27.0%
CCCCCCCCCCCCCCCCCCSc1nc(NCCCN2CCN(C)CC2)nc(SCCCCCCCCC)n1 [Compound S9S18D9]	4.0%	0.0%
CCCCCCCCCCCCCCCCCCSc1nc(NCC2CCN(C)CC2)nc(SCCCCCCCCC)n1 [Compound S9S18D10]	43.6%	7.0%
CCCCCCCCCCSc1nc(NCCN(C)C)nc(SCCCCCCCCCC)n1 [Compound S10S10D1]	0.7%	7.8%
CCCCCCCCCCSc1nc(NCCN2CCOCC2)nc(SCCCCCCCCCC)n1 [Compound S10S10D2]	0.4%	4.0%

Reference: patent US20230123334A1, “AMINO LIPID COMPOUND, PREPARATION METHOD THEREFOR, AND APPLICATION THEREOF” (SHENZHEN SHENXIN BIOTECHNOLOGY CO., LTD., priority 2020, published 2023)
